These results are taken from patent US8236801B2, “2-aza-bicyclo[2.2.1]heptane derivatives” (Actelion Pharmaceuticals Ltd., priority 2008, dated 2012).

Where two headings read alike, the source gives them in different places.

One experiment deals with T1, human orexin-1 receptor (Homo sapiens, UniProt O43613).
T1 construct: expressed in transfected cells; host or cells: Chinese hamster ovary (CHO) cells, G418 selection
T1 sequence (O43613 1-425): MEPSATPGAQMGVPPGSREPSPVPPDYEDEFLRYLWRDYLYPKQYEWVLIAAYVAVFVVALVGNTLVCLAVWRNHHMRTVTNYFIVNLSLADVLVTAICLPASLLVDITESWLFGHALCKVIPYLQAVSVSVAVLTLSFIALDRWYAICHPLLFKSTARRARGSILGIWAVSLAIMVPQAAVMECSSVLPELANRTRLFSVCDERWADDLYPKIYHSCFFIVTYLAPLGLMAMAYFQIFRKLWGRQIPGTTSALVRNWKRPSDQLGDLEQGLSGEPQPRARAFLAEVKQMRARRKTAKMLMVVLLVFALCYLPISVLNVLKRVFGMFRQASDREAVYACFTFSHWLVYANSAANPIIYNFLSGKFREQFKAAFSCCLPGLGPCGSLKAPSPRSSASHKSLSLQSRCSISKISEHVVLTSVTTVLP
Kind of experiment: FLIPR calcium assay, antagonism of orexin-A in CHO cells expressing the human orexin-1 receptor. Type of experiment: cell-based. To be noted: read-out: OX1 IC50. The method, then:
(§1) Chinese hamster ovary (CHO) cells expressing the human orexin-1 receptor and the human orexin-2 receptor, respectively, are grown in culture medium (Ham F-12 with L-Glutamine) containing 300 μg/ml G418, 100 U/ml penicillin, 100 μg/ml streptomycin and 10% heat inactivated fetal calf serum (FCS). The cells are seeded at 20′000 cells/well into 384-well black clear bottom sterile plates (Greiner). The seeded plates are incubated overnight at 37° C. in 5% CO2. Human orexin-A as an agonist is prepared as 1 mM stock solution in MeOH:water (1:1), diluted in HBSS containing 0.1% bovine serum albumin (BSA), NaHCO3: 0.375 g/l and 20 mM HEPES for use in the assay at a final concentration of 3 nM. Antagonists are prepared as 10 mM stock solution in DMSO, then diluted in 384-well plates, first in DMSO, then in HBSS containing 0.1% bovine serum albumin (BSA), NaHCO3: 0.375 g/l and 20 mM HEPES. On the day of the assay, 50 μl of staining buffer (HBSS containing 1% FCS, 20 mM HEPES, NaHCO3: 0.375 g/l, 5 mM probenecid (Sigma) and 3 μM of the fluorescent calcium indicator fluo-4 AM (1 mM stock solution in DMSO, containing 10% pluronic) is added to each well. The 384-well cell-plates are incubated for 50 min at 37° C. in 5% CO2 followed by equilibration at rt for 30-120 min before measurement. Within the Fluorescent Imaging Plate Reader (FLIPR2 or FLIPR Tetra, Molecular Devices), antagonists are added to the plate in a volume of 10 μl/well, incubated for 10 min and finally 10 μl/well of agonist is added. Fluorescence is measured for each well at 1 second intervals, and the height of each fluorescence peak is compared to the height of the fluorescence peak induced by 3 nM orexin-A with vehicle in place of antagonist. For each antagonist, the IC50 value (the concentration of compound needed to inhibit 50% of the agonistic response) is determined. Optimized conditions may be achieved by adjustment of pipetting speed and cell splitting regime. The calculated IC50 values of the compounds may fluctuate depending on the daily cellular assay performance. Fluctuations of this kind are known to those skilled in the art.

Another experiment has as its target T2, human orexin-2 receptor (Homo sapiens, UniProt O43614).
T2 construct: expressed in transfected cells; host or cells: Chinese hamster ovary (CHO) cells, G418 selection
T2 sequence (O43614 1-444): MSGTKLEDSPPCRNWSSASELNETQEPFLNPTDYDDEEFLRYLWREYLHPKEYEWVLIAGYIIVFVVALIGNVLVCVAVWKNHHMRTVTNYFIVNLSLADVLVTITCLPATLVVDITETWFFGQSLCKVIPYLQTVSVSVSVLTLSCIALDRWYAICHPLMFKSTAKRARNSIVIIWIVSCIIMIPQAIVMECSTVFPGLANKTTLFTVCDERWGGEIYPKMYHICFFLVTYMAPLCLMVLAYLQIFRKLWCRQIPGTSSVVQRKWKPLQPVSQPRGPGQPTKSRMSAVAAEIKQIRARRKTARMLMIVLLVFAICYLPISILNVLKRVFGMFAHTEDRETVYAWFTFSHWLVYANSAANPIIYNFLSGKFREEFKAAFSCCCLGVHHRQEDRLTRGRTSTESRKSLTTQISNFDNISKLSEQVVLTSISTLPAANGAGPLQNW
The experiment is described as follows: FLIPR calcium assay, antagonism of orexin-A in CHO cells expressing the human orexin-2 receptor. To be noted: read-out: OX2 IC50. It is filed as cell-based. The protocol: as §1

[1] abbreviates: measured with FLIPR 2, 3 nM orexin-A, CHO cells.
Setting [2] is: measured with FLIPR Tetra (marked *), 3 nM orexin-A, CHO cells.
Setting [3] is: measured with FLIPR Tetra (marked *), geometric mean from n = 2 values.

For the molecule `Cc1nc(C(=O)N2[C@@H]3CC[C@@H](C3)[C@H]2CNC(=O)c2cccc3cccnc23)c(-c2cccc(Cl)c2)s1` [Example 1, Quinoline-8-carboxylic acid {(1R,3S,4S)-2-[5-(3-chloro-phenyl)-2-methyl-thiazole-4-carbonyl]-2-aza-bicyclo[2.2.1]hept-3-ylmethyl}-amide], the IC50 at human orexin-1 receptor (setting [1]) is 0.059 µM; at human orexin-2 receptor (setting [1]) it was 0.622 µM.

As for `Nc1nc(C(=O)N2[C@@H]3CC[C@@H](C3)[C@H]2CNC(=O)c2cccc3c2OCCO3)c(-c2cccc(F)c2)s1` [Example 5, 2,3-Dihydro-benzo[1,4]dioxine-5-carboxylic acid {(1R,3S,4S)-2-[2-amino-5-(3-fluoro-phenyl)-thiazole-4-carbonyl]-2-aza-bicyclo[2.2.1]hept-3-ylmethyl}-amide], the figures for the IC50 on human orexin-1 receptor (setting [1]) and at human orexin-2 receptor (setting [1]) were 0.149 µM and 0.029 µM, respectively.

`Cc1ncc(C(=O)N2[C@@H]3CC[C@@H](C3)[C@H]2CNC(=O)c2cccc3occc23)c(-c2ccccc2)n1` [Example 11, Benzofuran-4-carboxylic acid [(1R,3S,4S)-2-(2-methyl-4-phenyl-pyrimidine-5-carbonyl)-2-aza-bicyclo[2.2.1]hept-3-ylmethyl]-amide]: the IC50 was determined as 0.075 µM at human orexin-1 receptor (setting [1]) and 2.14 µM at human orexin-2 receptor (setting [1]).

For the molecule `Cc1nc2sccn2c1C(=O)NC[C@@H]1[C@H]2CC[C@H](C2)N1C(=O)c1nc(C2CC2)sc1-c1ccccc1` [Example 31, 6-Methyl-imidazo[2,1-b]thiazole-5-carboxylic acid [(1R,3S,4S)-2-(2-cyclopropyl-5-phenyl-thiazole-4-carbonyl)-2-aza-bicyclo[2.2.1]hept-3-ylmethyl]-amide], the IC50 worked out at 0.138 µM on human orexin-1 receptor (setting [2]) and 0.055 µM on human orexin-2 receptor (setting [2]).

With `Cc1nc2sccn2c1C(=O)NC[C@@H]1[C@H]2CC[C@H](C2)N1C(=O)c1ncsc1-c1ccc(F)cc1` [Example 35, 6-Methyl-imidazo[2,1-b]thiazole-5-carboxylic acid {(1R,3S,4S)-2-[5-(4-fluoro-phenyl)-thiazole-4-carbonyl]-2-aza-bicyclo[2.2.1]hept-3-ylmethyl}-amide], the IC50 on human orexin-1 receptor (setting [2]) amounted to 0.278 µM; at human orexin-2 receptor (setting [2]) it was 0.808 µM.

For `CCn1nc(C)cc1C(=O)NC[C@@H]1[C@H]2CC[C@H](C2)N1C(=O)c1ccccc1-c1ccccc1` [Example 40, 2-Ethyl-5-methyl-2H-pyrazole-3-carboxylic acid [(1R,3S,4S)-2-(biphenyl-2-carbonyl)-2-aza-bicyclo[2.2.1]hept-3-ylmethyl]-amide], the IC50 is over 10 µM at human orexin-1 receptor (setting [1]) and 0.441 µM on human orexin-2 receptor (setting [1]).

Turning to `Cc1nc(C(=O)N2[C@@H]3CC[C@@H](C3)[C@H]2CNc2ncc(Br)cn2)c(-c2ccccc2)s1` [Example 46, {(1R,3S,4S)-3-[(5-Bromo-pyrimidin-2-ylamino)-methyl]-2-aza-bicyclo[2.2.1]hept-2-yl}-(2-methyl-5-phenyl-thiazol-4-yl)-methanone], the IC50 at human orexin-1 receptor (setting [2]) amounted to 0.488 µM; at human orexin-2 receptor (setting [2]), 0.364 µM.

Take `CN(C)c1nc(C(=O)N2[C@@H]3CC[C@@H](C3)[C@H]2CNC(=O)c2nn(C)c3ccccc23)c(-c2ccccc2)s1` [Example 63, 1-Methyl-1H-indazole-3-carboxylic acid [(1R,3S,4S)-2-(2-dimethylamino-5-phenyl-thiazole-4-carbonyl)-2-aza-bicyclo[2.2.1]hept-3-ylmethyl]-amide]: the IC50 at human orexin-1 receptor (setting [2]) was 0.307 µM; on human orexin-2 receptor (setting [2]) it was 0.061 µM.

For the molecule `Cc1nc2c(C(=O)NC[C@@H]3[C@H]4CC[C@H](C4)N3C(=O)c3nc(N(C)C)sc3-c3cccc(F)c3)cccc2o1` [Example 79, 2-Methyl-benzooxazole-4-carboxylic acid {(1R,3S,4S)-2-[2-dimethylamino-5-(3-fluoro-phenyl)-thiazole-4-carbonyl]-2-aza-bicyclo[2.2.1]hept-3-ylmethyl}-amide], the IC50 is 0.064 µM on human orexin-1 receptor (setting [3]) and 0.071 µM on human orexin-2 receptor (setting [3]).

In the case of `COc1nc(C(=O)N2[C@@H]3CC[C@@H](C3)[C@H]2CNC(=O)c2cccc3ncsc23)c(-c2cccc(Cl)c2)s1` [Example 80, Benzothiazole-7-carboxylic acid {(R,S,S)-2-[5-(3-chloro-phenyl)-2-methoxy-thiazole-4-carbonyl]-2-aza-bicyclo[2.2.1]hept-3-ylmethyl}-amide], the IC50 at human orexin-1 receptor (setting [2]) is 0.08 µM; at human orexin-2 receptor (setting [2]), 0.015 µM.

As for `O=C(NC[C@@H]1[C@H]2CC[C@H](C2)N1C(=O)c1sccc1-c1ccc2c(c1)OCO2)c1cccc2ncsc12` [Example 94, Benzothiazole-7-carboxylic acid [(1R,3S,4S)-2-(3-benzo[1,3]dioxol-5-yl-thiophene-2-carbonyl)-2-aza-bicyclo[2.2.1]hept-3-ylmethyl]-amide], the IC50 at human orexin-1 receptor (setting [2]) was 1.27 µM; at human orexin-2 receptor (setting [2]) it was 0.081 µM.

`COc1cccc(-c2sc(N(C)C)nc2C(=O)N2[C@@H]3CC[C@@H](C3)[C@H]2CNC(=O)c2cccc3ncsc23)c1` [Example 97, Benzothiazole-7-carboxylic acid {(1R,3S,45)-2-[2-dimethylamino-5-(3-methoxy-phenyl)-thiazole-4-carbonyl]-2-aza-bicyclo[2.2.1]hept-3-ylmethyl}-amide]: the values for the IC50 at human orexin-1 receptor (setting [3]) and on human orexin-2 receptor (setting [3]) were 0.012 µM and 0.014 µM, respectively.

For `Cc1nc(C(=O)N2[C@@H]3CC[C@@H](C3)[C@H]2CNC(=O)c2cccc3ncsc23)c(-c2cccc(OC(F)(F)F)c2)o1` [Example 104, Benzothiazole-7-carboxylic acid {(1R,3S,4S)-2-[2-methyl-5-(3-trifluoromethoxy-phenyl)-oxazole-4-carbonyl]-2-aza-bicyclo[2.2.1]hept-3-ylmethyl}-amide], the figures for the half-inhibitory concentration (IC50) at human orexin-1 receptor (setting [2]) and at human orexin-2 receptor (setting [2]) were 0.305 µM and 0.037 µM, respectively.

`CN(C)c1nc(C(=O)N2[C@@H]3CC[C@@H](C3)[C@H]2CNC(=O)c2nsc3ccccc23)c(-c2cccc(F)c2)s1` [Example 105, Benzo[d]isothiazole-3-carboxylic acid {(1R,3S,4S)-2-[2-dimethylamino-5-(3-fluoro-phenyl)-thiazole-4-carbonyl]-2-aza-bicyclo[2.2.1]hept-3-ylmethyl}-amide]: the IC50 at human orexin-1 receptor (setting [2]) turned out to be 0.065 µM; on human orexin-2 receptor (setting [2]) it was 0.421 µM.

In the case of `O=C(NC[C@@H]1[C@H]2CC[C@H](C2)N1C(=O)c1nccnc1-c1ccc2cc[nH]c2c1)c1cccc2ncsc12` [Example 109, Benzothiazole-7-carboxylic acid {(1R,3S,4S)-2-[3-(1H-indol-6-yl)-pyrazine-2-carbonyl]-2-aza-bicyclo[2.2.1]hept-3-ylmethyl}-amide], the IC50 at human orexin-1 receptor (setting [2]) stood at 0.707 µM; on human orexin-2 receptor (setting [2]), 0.019 µM.

Consider `O=C(NC[C@H]1[C@@H]2CC[C@@H](C2)N1C(=O)c1nc(N2CCCC2)sc1-c1ccccc1F)c1cccc2ncsc12` [Example 110, Benzothiazole-7-carboxylic acid {(1S,3R,4R)-2-[5-(2-fluoro-phenyl)-2-pyrrolidin-1-yl-thiazole-4-carbonyl]-2-aza-bicyclo[2.2.1]hept-3-ylmethyl}-amide], for which the half-maximal inhibitory concentration (IC50) on human orexin-1 receptor (setting [2]) came out at 0.023 µM; on human orexin-2 receptor (setting [2]), 0.03 µM.
